Assay results taken from ChEMBL document CHEMBL1142753, “Bioactive fluorinated derivative of amphotericin B” (Bioorg Med Chem Lett, 2005).
pEC50: −log10 of the molar value.

Tests used:
[1] = Effective concentration of Amphotericin required for hemolytic activity against 1% human erythrocytes; format: functional
Aspergillus niger = assay: Inhibitory effect of Amphotericin required for antifungal activity against Aspergillus niger; format: functional

Question: With `CC1OC(O[C@H]2/C=C/C=C/C=C/C=C/C=C/C=C/C=C/[C@H](C)[C@@H](O)[C@@H](C)[C@H](C)OC(=O)C[C@H](O)C[C@H](O)CC[C@@H](O)[C@H](O)C[C@H](O)C[C@]3(O)C[C@H](O)[C@@H](C(=O)O)[C@H](C2)O3)C(O)C(NCc2ccc(F)cc2)C1O` (stereo partly specified) as the molecule, how does the pEC50 [1] read?
Answer: Its pEC50 is 5.59.

Question: And the Activity (Aspergillus niger)?
Answer: The Activity was over 50 µg.

Question: With `CC1OC(O[C@H]2/C=C/C=C/C=C/C=C/C=C/C=C/C=C/[C@H](C)[C@@H](O)[C@@H](C)[C@H](C)OC(=O)C[C@H](O)C[C@H](O)CC[C@@H](O)[C@H](O)C[C@H](O)C[C@@]3(O)O[C@@H](C2)[C@H](C(=O)O)[C@@H](O)[C@@H]3F)C(O)C(N)C1O` (stereo partly specified) as the molecule, how does the pEC50 [1] read?
Answer: Its pEC50 is 5.89.

Question: What about the Activity (Aspergillus niger) of the same molecule?
Answer: The Activity was 10 µg.

Question: With `C[C@@H]1[C@H](O)[C@@H](C)/C=C/C=C/C=C/C=C/C=C/C=C/C=C/[C@H](O[C@@H]2O[C@H](C)[C@@H](O)[C@H](N)[C@@H]2O)C[C@@H]2O[C@](O)(C[C@@H](O)C[C@@H](O)[C@H](O)CC[C@@H](O)C[C@@H](O)CC(=O)O[C@H]1C)C[C@H](O)[C@H]2C(=O)O` [AMPHOTERICIN B] as the molecule, how does the pEC50 [1] read?
Answer: Its pEC50 is 5.85.

Question: What about the Activity (Aspergillus niger) of the same molecule?
Answer: Its Activity is 10 µg.
